Several values for one entry are separate records, joined by “and”; a condition that tells them apart may be missing. Identical values can stand only once.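 Exposure lasted 48 hours, with cells grown in 96-well plates and compounds tested at five concentrations. GI50 marks 50% less growth. TGI: total growth inhibition.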
How the values were obtained:
Assay in all cases: NCI-60 cell line screen, 48 h
[1] = system: A549 NSCLC
[2] = system: HCC-2998 colon
[3] = system: HOP-92 NSCLC
[4] = system: OVCAR-4 ovarian
[5] = system: RPMI-8226 leukemia
[6] = system: SK-MEL-5 melanoma
[7] = system: SNB-19 CNS
[8] = system: SR leukemia
[9] = system: T-47D breast
[10] = system: UO-31 renal

Row | SMILES | GI50 [1] [µM] | TGI [1] | GI50 [2] [µM] | TGI [2] | GI50 [3] [µM] | TGI [3] | GI50 [4] [µM] | TGI [4] | GI50 [5] [µM] | TGI [5] | GI50 [6] [µM] | TGI [6] | GI50 [7] [µM] | TGI [7] | GI50 [8] [µM] | TGI [8] | GI50 [9] [µM] | TGI [9] [µM] | GI50 [10] [µM] | TGI [10]
1 | O=[N+]([O-])c1ccc(Br)c([N+](=O)[O-])c1 | 4.12 | 16.4 µM | 4.73 | 16.7 µM | 1.94 | 4.02 µM | 1.72 | 3.19 µM | 2.36 | 5.51 µM | 2.3 | 5.64 µM | 2.9 | 9.28 µM | 1.56 | 5.64 µM | 2.13 | 4.94 | 0.266 | 0.779 µM
2 | Oc1ccc2cc(Br)ccc2c1-c1c(O)ccc2cc(Br)ccc12 | 3.78 | 13.1 µM | 2.22 | 4.8 µM | 3.01 | 7.93 µM | 4.89 | 14.6 µM | 2.81 | 9.1 µM | 1.87 | 3.74 µM | 3.92 | 15.9 µM | 2.52 | 7.43 µM | 4.61 | 17.3 | 1.96 | 9.92 µM
3 | COC(=O)NC1C(C)OC(OC2C/C=C(/C)C3C=CC4C(OC5CC(OC6CC(O)C(OC7CC(O)C(OC)C(C)O7)C(C)O6)C(O)C(C)O5)C(C)CC(C)C4C3(C)/C(O)=C3\C(=O)OC4(CC(C)C(CO)=CC4/C=C\2C)C3=O)CC1(C)[N+](=O)[O-] (stereo not drawn) | 25.7 | 50 µM and 58.5 µM | – | 31.6 µM | 9.95 | 19.7 µM and 32.7 µM | – | 11.8 µM | 15.7 | 50 µM and 26.9 µM | 10.9 | 18.7 µM and 33.2 µM | 15.9 | 50 µM and 52.4 µM | 23.2 | 50 µM and > 100 µM | – | 31.8 | 14.4 | 50 µM and 34.3 µM
4 | CC[C@@H](C(=O)[C@@H](C)[C@@H](O)[C@H](C)[C@@H]1O[C@@H]([C@@H](CC)C(=O)O)CC[C@@H]1C)C1O[C@]2(C=CC(=O)[C@]3(CC[C@@](C)([C@H]4CC[C@](O)(CC)[C@H](C)O4)O3)O2)[C@H](C)C[C@@H]1C (stereo partly drawn) | 0.342 | 22.7 µM | 0.152 | 12.6 µM | 1.33 | 8.02 µM | 1.1 | 17.9 µM | 0.0868 | 4.81 µM | 0.0658 | 0.232 µM | 0.4 | 6.96 µM | 0.0969 | – | 0.0596 | 17.3 | 1.19 | 11 µM
5 | COc1ccc(N(CC(=O)NCCC[Te]c2ccccc2)C(=O)c2ccccc2)cc1 | 0.382 | 2.14 µM | 3.03 | 8.21 µM | 4.1 | – | 11.9 | 25.2 µM | 3.18 | 19.2 µM | 2.4 | 6.08 µM | 4.06 | 59 µM | 2.82 | – | 3.4 | 21.6 | 2.77 | 10.9 µM
6 | COC(=O)Nc1nc2ccc(Oc3ccc(NC(=O)Nc4cccc(C(=O)O)c4)cc3)cc2[nH]1 | 10.5 | > 25 µM | 8.44 | > 25 µM | > 25 | > 25 µM | 9.77 | > 25 µM | 8.03 | > 25 µM | 3.24 | > 21 µM | 9.36 | > 25 µM | 2.41 | > 25 µM | > 14.2 | > 25 | 15.7 | > 25 µM
7 | COc1cc(C(=O)c2ccc3c(c2)OCO3)cc(OC)c1OC | 6.03 | > 100 µM | 9.73 | > 100 µM | 2.48 | > 100 µM | 5.14 | > 100 µM | 2.64 | > 42 µM | 1.88 | > 21.5 µM | 5.07 | > 100 µM | 0.348 | > 87.7 µM | 5.3 | > 100 | 2.93 | 38.2 µM
8 | COc1cc2nc3sc(C(=O)Nc4ccc(C(=O)OC(C)C)cc4)c(C(=O)Nc4ccc(Cl)cc4C)n3c(=O)c2cc1OC | 0.824 | > 100 µM | 9.5 | > 100 µM | 10.7 | 30.6 µM | 11.2 | > 100 µM | 16 | 78.6 µM | 6.08 | > 100 µM | 28 | 95.3 µM | 3.05 | 14.1 µM | 5.59 | 54.6 | 25.7 | > 100 µM
9 | CCC(C)(C)C(=O)O[C@H]1C[C@@H](C)C=C2C=C[C@H](C)[C@H](CC[C@@H]3C[C@@H](O)CC(=O)O3)[C@H]21 | 6.79 | 20.4 µM and 18.8 µM | 7.89 | 22.1 µM and > 30 µM | 0.0335 | – | 6.1 | 20.5 µM and > 30 µM | 3.79 | 28.5 µM and > 30 µM | 2.23 | 7.87 µM | 3.13 | 19.9 µM | 1.72 | 13.1 µM and > 30 µM | 11.9 | 28.2 | 2.85 | 14.7 µM and 10.1 µM
10 | Cn1cc(-c2nc(-c3c[nH]c4ncccc34)cs2)c2cc(F)ccc21 | 2.81 | > 25.6 µM | 1.98 | 7.59 µM | 1.92 | 5.79 µM | 0.0689 | 22.2 µM | 2.81 | 48.3 µM | 2.6 | 11.5 µM | 3.82 | 20 µM | 2.44 | 7.8 µM | 0.0443 | 4.43 | 2.06 | 8.12 µM
11 | CCOc1cccc(/C=N/NC(=O)c2ccc(Nc3ccnc(C(F)(F)F)c3)cc2)c1O | 2.13 | > 69.1 µM | 1.49 | > 20.4 µM | 1.01 | > 64.2 µM | 0.755 | > 100 µM | 0.359 | 20.6 µM | 1.18 | 8.11 µM | 4.69 | > 100 µM | 0.236 | > 100 µM | 0.984 | 19.4 | 0.781 | > 25.7 µM
